Drawing on PubChem BioAssay (NCI), this text covers TGI and GI50 for ten molecules.

Some test systems named below: A498 renal; ACHN renal; DU-145 prostate; HOP-92 NSCLC; HT29 colon; NCI-H460 lung; NCI-H522 lung; U251 CNS; UACC-62 melanoma; HL-60(TB) leukemia.
Common to all, as to assay: inhibition of tumour cell growth, NCI panel, 48 h

Each structure is given as a SMILES string.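 Results reflect a 48-hour exposure of cells in 96-well plates to compound at five concentrations. GI50 = concentration required for 50% inhibition of growth. TGI is the concentration that stops growth completely.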

`CCc1cccc(C(C)C)c1NC(=O)C(=O)C1C(=O)Nc2ccccc2S1=O` (stereo not drawn): the TGI in the assay on A498 renal, with ACHN renal, in the assay with DU-145 prostate, with HOP-92 NSCLC, in the assay with HT29 colon and in the assay on NCI-H460 lung was above 100 µM throughout. Further, the TGI with NCI-H522 lung, in the assay with U251 CNS and with UACC-62 melanoma was above 100 µM throughout.

For `COc1ccc(Nc2nc3cc(N)cc(N)c3nc2-c2ccccc2)cc1`, the GI50 with ACHN renal was 15.3 µM; in the assay with DU-145 prostate it was 39.3 µM; in the assay on HL-60(TB) leukemia, 34.4 µM; with HOP-92 NSCLC, 19.9 µM; in the assay on NCI-H460 lung, 26.8 µM; in the assay on NCI-H522 lung, 14.7 µM. Moreover, the GI50 is 16.3 µM in the assay with U251 CNS and 16.8 µM with UACC-62 melanoma. Further, the TGI in the assay on ACHN renal was 43.3 µM; in the assay with DU-145 prostate, above 100 µM; in the assay on HL-60(TB) leukemia it was above 100 µM; with HOP-92 NSCLC it was 52.6 µM; with HT29 colon, 42.7 µM; in the assay with NCI-H460 lung, 89.9 µM. Moreover, the TGI is 27.9 µM with NCI-H522 lung, 29.8 µM in the assay with U251 CNS and 30.5 µM in the assay with UACC-62 melanoma.

As for `COc1ccc(C2(Cl)c3ccccc3N(c3ccccc3)c3ccccc32)cc1`, the GI50 in the assay on ACHN renal was 0.598 µM; in the assay on DU-145 prostate, 0.536 µM; in the assay with HL-60(TB) leukemia, 0.542 µM; in the assay on HOP-92 NSCLC, 1.88 µM; with HT29 colon it was 0.306 µM; with NCI-H460 lung it was 0.484 µM. In addition, the figures for the GI50 in the assay on NCI-H522 lung, with U251 CNS and in the assay with UACC-62 melanoma were 0.444 µM, 0.0505 µM and 0.191 µM, respectively. Moreover, the TGI was 10.1 µM in the assay with ACHN renal; 2.04 µM in the assay with DU-145 prostate; 4.25 µM in the assay with HL-60(TB) leukemia; 7.13 µM in the assay with HOP-92 NSCLC; 2.3 µM in the assay on HT29 colon; 1.94 µM in the assay on NCI-H460 lung. Further, the TGI was 2.94 µM with NCI-H522 lung, 1.29 µM in the assay with U251 CNS and 1.4 µM in the assay on UACC-62 melanoma.

As to `Cc1nc([N+](=O)[O-])cn1-c1nc2ccccn2c1[N+](=O)[O-]`, the TGI in the assay on A498 renal was above 100 µM; in the assay with ACHN renal it was above 100 µM; in the assay with DU-145 prostate, 83.6 µM; in the assay with HOP-92 NSCLC, above 100 µM; in the assay with HT29 colon, above 100 µM; in the assay on NCI-H460 lung it was above 100 µM. Moreover, the TGI in the assay on NCI-H522 lung, in the assay on U251 CNS and with UACC-62 melanoma was above 100 µM each time.

Take `O=C(CN(/C=C/C(=O)C(F)(F)F)c1ccc(Cl)cc1)c1ccc(Cl)cc1`: the GI50 in the assay with A498 renal was 13.5 µM; in the assay with ACHN renal, 8.01 µM; in the assay on DU-145 prostate, 15.1 µM; in the assay with HOP-92 NSCLC, 19.2 µM; with HT29 colon it was 7.41 µM; in the assay on NCI-H460 lung, 11.9 µM. The GI50 is 2.1 µM in the assay with NCI-H522 lung, 7.53 µM with U251 CNS and 3.03 µM in the assay on UACC-62 melanoma. The TGI was 26.9 µM in the assay with A498 renal; 20.7 µM in the assay on ACHN renal; 29.5 µM with DU-145 prostate; 35.8 µM with HOP-92 NSCLC; above 100 µM with HT29 colon; 35.3 µM with NCI-H460 lung. Further, the TGI in the assay on NCI-H522 lung amounted to 5.93 µM; with U251 CNS it was 20.5 µM; in the assay on UACC-62 melanoma, 13.4 µM.

With `COc1cc(/C=C2\CC3C4CC=C5C[C@@H](OC(C)=O)CC[C@]5(C)C4CC[C@]3(C)C2=O)ccc1OCCN1CCCCC1` (stereo partly drawn), the GI50 in the assay on A498 renal was 1.71 µM; in the assay with ACHN renal, 3.64 µM; with DU-145 prostate it was 5.18 µM; in the assay with HT29 colon it was 1.88 µM; in the assay on NCI-H460 lung, 3.02 µM; in the assay with NCI-H522 lung it was 7.28 µM. Further, the values for the GI50 in the assay on U251 CNS and in the assay with UACC-62 melanoma were 2.41 µM and 1.99 µM, respectively. In addition, the TGI in the assay on A498 renal was 5.07 µM; in the assay on ACHN renal, 14.4 µM; in the assay with DU-145 prostate, 17.4 µM; in the assay on HT29 colon it was above 100 µM; with NCI-H460 lung, 11.6 µM; in the assay with NCI-H522 lung, 25.7 µM. In addition, the TGI in the assay with U251 CNS was 8.26 µM; with UACC-62 melanoma, 3.66 µM.

With `Cc1c(C)n(CCCN2CCN(C)CC2)c2ccc(Oc3cccc(C(=O)N4CCN(CCc5ccc(F)cc5)CC4)c3)cc12`, the GI50 with ACHN renal was 1.67 µM; with DU-145 prostate, 1.86 µM; in the assay on NCI-H460 lung, 1.86 µM; in the assay on U251 CNS it was 1.66 µM; in the assay on UACC-62 melanoma, 1.87 µM. Moreover, the TGI amounted to 3.06 µM in the assay on ACHN renal; 3.6 µM with DU-145 prostate; 3.45 µM with NCI-H460 lung; 3.28 µM in the assay with U251 CNS; 3.58 µM in the assay with UACC-62 melanoma.

For `O=C(CSc1nc2c(n1Nc1ccccc1)-c1ccccc1SC2)Nc1nc(-c2ccc(Cl)cc2)cs1`, the GI50 with A498 renal is 6.44 µM; with ACHN renal, 35.4 µM; with DU-145 prostate, above 100 µM; in the assay with HOP-92 NSCLC, 11.6 µM; in the assay with HT29 colon it was above 100 µM; in the assay on NCI-H522 lung it was 5.73 µM. Besides, the GI50 with U251 CNS was 9.91 µM; in the assay on UACC-62 melanoma, 13.5 µM. The TGI in the assay on A498 renal is 32.8 µM; in the assay on ACHN renal, above 100 µM; in the assay on DU-145 prostate, above 100 µM; in the assay on HOP-92 NSCLC it was 71 µM; in the assay on HT29 colon it was above 100 µM; with NCI-H522 lung, above 100 µM. Further, the TGI in the assay on U251 CNS is 88.2 µM; in the assay with UACC-62 melanoma it was above 100 µM.

Consider `O=C(NCCCCN1CCOCC1)c1cc2ccccc2o1`, for which the GI50 in the assay on A498 renal, in the assay on ACHN renal, in the assay with DU-145 prostate, in the assay with HT29 colon, with NCI-H460 lung and in the assay with NCI-H522 lung was above 100 µM each time. Besides, the GI50 in the assay with U251 CNS and in the assay with UACC-62 melanoma was above 100 µM each time. The TGI with A498 renal, in the assay with ACHN renal, in the assay with DU-145 prostate, with HT29 colon, with NCI-H460 lung and in the assay on NCI-H522 lung was above 100 µM throughout. The TGI in the assay with U251 CNS and in the assay on UACC-62 melanoma was above 100 µM throughout.

Take `O=C(O)CSc1n[nH]c(=O)[nH]c1=O`: the TGI in the assay with A498 renal, in the assay with ACHN renal, in the assay with DU-145 prostate, with HL-60(TB) leukemia, in the assay on HT29 colon and in the assay on NCI-H460 lung was above 100 µM each time. The TGI in the assay on NCI-H522 lung, in the assay on U251 CNS and in the assay with UACC-62 melanoma was above 100 µM each time.
